Measurements taken from patent US12168659B2, “Thioamide derivative and preparation method and application thereof” (Yunbaiyao Zhengwu Science and Technology (Shanghai) Co., …, priority 2022, dated 2024).

Test system: human malignant melanoma cells (A375)
Test: Anti-proliferative activity, CCK-8 assay, A375
Type: cell-based
Details: A-375, 72 h incubation
Description: (§1) Experimental procedure: Sample solutions with a concentration of 20 μM were prepared and serially diluted 5-fold downwards to obtain 10 concentrations: 20000 nM, 4000 nM, 800 nM, 160 nM, 32 nM, 6.4 nM, 1.28 nM, 0.256 nM, 0.0512 nM and 0.01024 nM. The sample solutions were incubated with the above cell lines for 72 h. Then 10 μL of a CCK-8 solution was then added to each well, followed by a further 2 hours incubation. An optical density (OD) value was measured at 450 nm using a fully automated microplate reader. Data were processed using GraphPad Prism 7 to calculate IC50.

SMILES | IC50 [nM]
CC(=S)Nc1cccc(-n2c(=O)n(C)c(=O)c3c(Nc4ccc(I)cc4F)n(C)c(=O)c(C)c32)c1 [Compound 1] | 3.5
CC(=S)Nc1cccc(-n2c(=O)n(C3CC3)c(=O)c3c(Nc4ccc(I)cc4F)n(C)c(=O)c(C)c32)c1 [Compound 2] | 3.1
CCC(=S)Nc1cccc(-n2c(=O)n(C3CC3)c(=O)c3c(Nc4ccc(I)cc4F)n(C)c(=O)c(C)c32)c1 [Compound 5] | 2.6

Further compounds by falling IC50, results first:

IC50 [nM] | SMILES
4.3 | Cc1c(=O)n(C)c(Nc2ccc(I)cc2F)c2c(=O)n(C3CC3)c(=O)n(-c3cccc(NC(=S)C(C)C)c3)c12 [Compound 7]
3.9 | CC(=S)Nc1cccc(-n2c(=O)n(C3CCCC3)c(=O)c3c(Nc4ccc(I)cc4F)n(C)c(=O)c(C)c32)c1 [Compound 4]
2.9 | Cc1c(=O)n(C)c(Nc2ccc(I)cc2F)c2c(=O)n(C3CC3)c(=O)n(-c3cccc(NC(=S)C4CC4)c3)c12 [Compound 6]
2.5 | CC(=S)Nc1cccc(-n2c(=O)n(C(C)C)c(=O)c3c(Nc4ccc(I)cc4F)n(C)c(=O)c(C)c32)c1 [Compound 3]

Test system: human colon cancer cells (HCT-15)
Test: Anti-proliferative activity, CCK-8 assay, HCT-15
Type: cell-based
Details: 72 h incubation
Description: as §1

SMILES | IC50 [nM]
CC(=S)Nc1cccc(-n2c(=O)n(C)c(=O)c3c(Nc4ccc(I)cc4F)n(C)c(=O)c(C)c32)c1 [Compound 1] | 15.4
CC(=S)Nc1cccc(-n2c(=O)n(C3CC3)c(=O)c3c(Nc4ccc(I)cc4F)n(C)c(=O)c(C)c32)c1 [Compound 2] | 12.6
CCC(=S)Nc1cccc(-n2c(=O)n(C3CC3)c(=O)c3c(Nc4ccc(I)cc4F)n(C)c(=O)c(C)c32)c1 [Compound 5] | 20.1

Results, then the compound that gave them:

IC50 [nM] | SMILES
24.2 | Cc1c(=O)n(C)c(Nc2ccc(I)cc2F)c2c(=O)n(C3CC3)c(=O)n(-c3cccc(NC(=S)C(C)C)c3)c12 [Compound 7]
9.8 | CC(=S)Nc1cccc(-n2c(=O)n(C3CCCC3)c(=O)c3c(Nc4ccc(I)cc4F)n(C)c(=O)c(C)c32)c1 [Compound 4]
13.9 | Cc1c(=O)n(C)c(Nc2ccc(I)cc2F)c2c(=O)n(C3CC3)c(=O)n(-c3cccc(NC(=S)C4CC4)c3)c12 [Compound 6]
14.8 | CC(=S)Nc1cccc(-n2c(=O)n(C(C)C)c(=O)c3c(Nc4ccc(I)cc4F)n(C)c(=O)c(C)c32)c1 [Compound 3]

Target: MEK1 (Homo sapiens, UniProt Q02750)
Sequence (Q02750 whole entry): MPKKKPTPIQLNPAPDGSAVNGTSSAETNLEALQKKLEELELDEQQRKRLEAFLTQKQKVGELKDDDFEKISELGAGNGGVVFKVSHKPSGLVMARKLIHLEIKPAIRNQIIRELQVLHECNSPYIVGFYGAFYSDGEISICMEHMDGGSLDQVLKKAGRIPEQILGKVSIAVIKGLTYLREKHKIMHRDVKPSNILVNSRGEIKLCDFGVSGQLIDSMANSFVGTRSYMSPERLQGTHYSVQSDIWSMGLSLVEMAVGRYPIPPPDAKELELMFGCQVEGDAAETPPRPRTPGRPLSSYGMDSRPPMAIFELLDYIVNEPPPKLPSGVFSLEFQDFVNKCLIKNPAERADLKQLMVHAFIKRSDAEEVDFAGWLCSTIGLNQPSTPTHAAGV
Test: Raf-MEK-ERK cascade kinase assay using recombinant protein (MEK1)
Type: biochemical
Details: 10 μM ATP, active B-Raf (V599E), 30° C. 30 minutes
Description: (§2) Experimental purpose: The inhibitory activity of the compounds on MEK1 and MEK2 was measured by performing a Raf-MEK-ERK cascade kinase assay using recombinant protein.
(§3) Experimental method: 2 mg of dephosphorylated myelin basic protein (MBP) was dispersed in a 0.2 M sodium carbonate aqueous solution (pH=9.4). The mixed solution was then coated onto an enzyme-linked immunosorbent assay (ELISA) plate (U-shaped bottom plate) and left to stand overnight at 4° C. […] Compound solutions with serial concentrations were tested in triplicate wells. A mixture of 2 ng of inactivated MEK1 (or 4 ng of MEK2) and 50 ng of inactivated ERK2 was dissolved in a buffer solution (20 mM MOPS [pH=7.4], 0.1% 2-mercaptoethanol, 0.1% BSA) at room temperature, and then treated with the above serial solutions on a flat plate. The plate was covered with 1% bovine serum albumin (BSA) and pre-incubated for 10 minutes. […] After incubation at 30° C. for 30 minutes, phosphorylation of MBP by ERK was detected using peroxidase-labeled anti-phosphorylated MBP antibodies. Data curves were plotted and half maximal inhibitory concentration (IC50) values were calculated using XLFit.

SMILES | IC50 [nM]
CC(=S)Nc1cccc(-n2c(=O)n(C)c(=O)c3c(Nc4ccc(I)cc4F)n(C)c(=O)c(C)c32)c1 [Compound 1] | 1.21
CC(=S)Nc1cccc(-n2c(=O)n(C3CC3)c(=O)c3c(Nc4ccc(I)cc4F)n(C)c(=O)c(C)c32)c1 [Compound 2] | 1.83

Second part, the compound after the results:

IC50 [nM] | SMILES
0.95 | Cc1c(=O)n(C)c(Nc2ccc(I)cc2F)c2c(=O)n(C3CC3)c(=O)n(-c3cccc(NC(=S)C(C)C)c3)c12 [Compound 7]
1.36 | CC(=S)Nc1cccc(-n2c(=O)n(C3CCCC3)c(=O)c3c(Nc4ccc(I)cc4F)n(C)c(=O)c(C)c32)c1 [Compound 4]
1.88 | Cc1c(=O)n(C)c(Nc2ccc(I)cc2F)c2c(=O)n(C3CC3)c(=O)n(-c3cccc(NC(=S)C4CC4)c3)c12 [Compound 6]
0.9 | CC(=S)Nc1cccc(-n2c(=O)n(C(C)C)c(=O)c3c(Nc4ccc(I)cc4F)n(C)c(=O)c(C)c32)c1 [Compound 3]

Test system: human prostate cancer cells (PC-3)
Test: Anti-proliferative activity, CCK-8 assay, PC-3
Type: cell-based
Details: 72 h incubation
Description: as §1

SMILES | IC50 [nM]
CC(=S)Nc1cccc(-n2c(=O)n(C)c(=O)c3c(Nc4ccc(I)cc4F)n(C)c(=O)c(C)c32)c1 [Compound 1] | 2.4
CC(=S)Nc1cccc(-n2c(=O)n(C3CC3)c(=O)c3c(Nc4ccc(I)cc4F)n(C)c(=O)c(C)c32)c1 [Compound 2] | 3.6
CCC(=S)Nc1cccc(-n2c(=O)n(C3CC3)c(=O)c3c(Nc4ccc(I)cc4F)n(C)c(=O)c(C)c32)c1 [Compound 5] | 3.3

Further lines, results first:

IC50 [nM] | SMILES
2.1 | Cc1c(=O)n(C)c(Nc2ccc(I)cc2F)c2c(=O)n(C3CC3)c(=O)n(-c3cccc(NC(=S)C(C)C)c3)c12 [Compound 7]
1.4 | CC(=S)Nc1cccc(-n2c(=O)n(C3CCCC3)c(=O)c3c(Nc4ccc(I)cc4F)n(C)c(=O)c(C)c32)c1 [Compound 4]
2.8 | Cc1c(=O)n(C)c(Nc2ccc(I)cc2F)c2c(=O)n(C3CC3)c(=O)n(-c3cccc(NC(=S)C4CC4)c3)c12 [Compound 6]
1.9 | CC(=S)Nc1cccc(-n2c(=O)n(C(C)C)c(=O)c3c(Nc4ccc(I)cc4F)n(C)c(=O)c(C)c32)c1 [Compound 3]

Target: MEK2 (Homo sapiens, UniProt P36507)
Sequence (P36507 whole entry): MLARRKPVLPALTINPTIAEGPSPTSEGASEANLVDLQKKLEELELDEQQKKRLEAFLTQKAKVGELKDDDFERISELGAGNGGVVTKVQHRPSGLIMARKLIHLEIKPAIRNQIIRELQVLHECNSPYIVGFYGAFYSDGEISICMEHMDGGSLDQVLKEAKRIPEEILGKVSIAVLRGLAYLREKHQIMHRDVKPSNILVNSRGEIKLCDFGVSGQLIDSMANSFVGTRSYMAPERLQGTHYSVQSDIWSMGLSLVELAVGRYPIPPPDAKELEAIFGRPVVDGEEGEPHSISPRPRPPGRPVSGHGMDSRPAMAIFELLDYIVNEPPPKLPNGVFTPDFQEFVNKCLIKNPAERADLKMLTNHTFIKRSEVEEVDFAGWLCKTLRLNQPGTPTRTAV
Test: Raf-MEK-ERK cascade kinase assay using recombinant protein (MEK2)
Type: biochemical
Details: 10 μM ATP, active B-Raf (V599E), 30° C. 30 minutes
Description: as §2, §3

SMILES | IC50 [nM]
CC(=S)Nc1cccc(-n2c(=O)n(C)c(=O)c3c(Nc4ccc(I)cc4F)n(C)c(=O)c(C)c32)c1 [Compound 1] | 1.09
CC(=S)Nc1cccc(-n2c(=O)n(C3CC3)c(=O)c3c(Nc4ccc(I)cc4F)n(C)c(=O)c(C)c32)c1 [Compound 2] | 2.13
CCC(=S)Nc1cccc(-n2c(=O)n(C3CC3)c(=O)c3c(Nc4ccc(I)cc4F)n(C)c(=O)c(C)c32)c1 [Compound 5] | 1.19

More lines, now with the values ahead:

IC50 [nM] | SMILES
1.01 | Cc1c(=O)n(C)c(Nc2ccc(I)cc2F)c2c(=O)n(C3CC3)c(=O)n(-c3cccc(NC(=S)C(C)C)c3)c12 [Compound 7]
1.05 | CC(=S)Nc1cccc(-n2c(=O)n(C3CCCC3)c(=O)c3c(Nc4ccc(I)cc4F)n(C)c(=O)c(C)c32)c1 [Compound 4]
1.24 | Cc1c(=O)n(C)c(Nc2ccc(I)cc2F)c2c(=O)n(C3CC3)c(=O)n(-c3cccc(NC(=S)C4CC4)c3)c12 [Compound 6]
0.98 | CC(=S)Nc1cccc(-n2c(=O)n(C(C)C)c(=O)c3c(Nc4ccc(I)cc4F)n(C)c(=O)c(C)c32)c1 [Compound 3]

Test system: human non-small cell lung cancer cells (A549)
Test: Anti-proliferative activity, CCK-8 assay, A549
Type: cell-based
Details: 72 h incubation
Description: as §1

SMILES | IC50 [nM]
CC(=S)Nc1cccc(-n2c(=O)n(C)c(=O)c3c(Nc4ccc(I)cc4F)n(C)c(=O)c(C)c32)c1 [Compound 1] | 2.6
CC(=S)Nc1cccc(-n2c(=O)n(C3CC3)c(=O)c3c(Nc4ccc(I)cc4F)n(C)c(=O)c(C)c32)c1 [Compound 2] | 3.1
CCC(=S)Nc1cccc(-n2c(=O)n(C3CC3)c(=O)c3c(Nc4ccc(I)cc4F)n(C)c(=O)c(C)c32)c1 [Compound 5] | 3.6

Now from value to compound:

IC50 [nM] | SMILES
2.8 | Cc1c(=O)n(C)c(Nc2ccc(I)cc2F)c2c(=O)n(C3CC3)c(=O)n(-c3cccc(NC(=S)C(C)C)c3)c12 [Compound 7]
2.4 | CC(=S)Nc1cccc(-n2c(=O)n(C3CCCC3)c(=O)c3c(Nc4ccc(I)cc4F)n(C)c(=O)c(C)c32)c1 [Compound 4]
3.9 | Cc1c(=O)n(C)c(Nc2ccc(I)cc2F)c2c(=O)n(C3CC3)c(=O)n(-c3cccc(NC(=S)C4CC4)c3)c12 [Compound 6]
1.5 | CC(=S)Nc1cccc(-n2c(=O)n(C(C)C)c(=O)c3c(Nc4ccc(I)cc4F)n(C)c(=O)c(C)c32)c1 [Compound 3]

Test system: human colon cancer cells (HCT116)
Test: Anti-proliferative activity, CCK-8 assay, HCT116
Type: cell-based
Details: HCT-116, 72 h incubation
Description: as §1

SMILES | IC50 [nM]
CC(=S)Nc1cccc(-n2c(=O)n(C)c(=O)c3c(Nc4ccc(I)cc4F)n(C)c(=O)c(C)c32)c1 [Compound 1] | 2.9
CC(=S)Nc1cccc(-n2c(=O)n(C3CC3)c(=O)c3c(Nc4ccc(I)cc4F)n(C)c(=O)c(C)c32)c1 [Compound 2] | 2.6
CCC(=S)Nc1cccc(-n2c(=O)n(C3CC3)c(=O)c3c(Nc4ccc(I)cc4F)n(C)c(=O)c(C)c32)c1 [Compound 5] | 3.8

Results, then the compound that gave them:

IC50 [nM] | SMILES
2.7 | Cc1c(=O)n(C)c(Nc2ccc(I)cc2F)c2c(=O)n(C3CC3)c(=O)n(-c3cccc(NC(=S)C(C)C)c3)c12 [Compound 7]
1.6 | CC(=S)Nc1cccc(-n2c(=O)n(C3CCCC3)c(=O)c3c(Nc4ccc(I)cc4F)n(C)c(=O)c(C)c32)c1 [Compound 4]
1.6 | Cc1c(=O)n(C)c(Nc2ccc(I)cc2F)c2c(=O)n(C3CC3)c(=O)n(-c3cccc(NC(=S)C4CC4)c3)c12 [Compound 6]
2.1 | CC(=S)Nc1cccc(-n2c(=O)n(C(C)C)c(=O)c3c(Nc4ccc(I)cc4F)n(C)c(=O)c(C)c32)c1 [Compound 3]

Test system: not listed separately
Test: Body weight change of experimental mice in the xenograft study
Details: 3 mg/kg gavage, 30 days
Description: Experimental procedure: The study evaluated the inhibitory effect of compounds administered by gavage against human HCT116 subcutaneous xenograft tumors in the BALB/c nude mouse model by measuring tumor size and calculating tumor volume (TV), relative tumor volume (RTV), relative tumor proliferation rate (T/C), and anti-tumor efficacy (TGI).

SMILES | Weight loss at the end of the experiment / toxicity (FIG. 1)
CC(=S)Nc1cccc(-n2c(=O)n(C3CC3)c(=O)c3c(Nc4ccc(I)cc4F)n(C)c(=O)c(C)c32)c1 [Compound 2] | toxicity of Trametinib was higher than that of compounds 2, 8 and 12

Test system: human HCT116 subcutaneous xenograft tumors
Test: In vivo anti-tumor assay, subcutaneous xenograft model
Design: species or system BALB/c nude mouse
Details: 3 mg/kg P.O. QD × 30 days
Description: Experimental purpose: To evaluate the in vivo efficacy of the compounds in a subcutaneous xenograft model of human cancer cells in a Bagg's albino (BALB/c) nude mouse.
The tumor suppressive efficacy of the compounds was quantified by TGI (%) or relative tumor proliferation rate T/C (%). TGI (%) reflected the tumor growth inhibition rate. TGI(%) was calculated using the following equation: TGI(%)=[1−(mean tumor volume at the end of treatment in a treatment group-mean tumor volume at the start of treatment in the treatment group)/(mean tumor volume at the end of treatment in the solvent control group-mean tumor volume at the start of treatment in the solvent control group)]×100%.
T/C(%) was calculated using the following equation: T/C (%)=TRTV/CRTV×100%, where TRTV was an RTV of the treatment group, and CRTV was an RTV of the negative control group. The RTV was calculated from the results of tumor size measurements according to the following equation: RTV=Vt/V0, where V0 was a mean tumor volume measured on the day of first administration (i.e., day 0), Vt was a mean tumor volume measured on the day indicated, and TRTV and CRTV were obtained from data on the same day.

SMILES | T/C (relative tumor proliferation rate) [%] | TGI (tumor growth inhibition rate) [%]
CC(=S)Nc1cccc(-n2c(=O)n(C3CC3)c(=O)c3c(Nc4ccc(I)cc4F)n(C)c(=O)c(C)c32)c1 [Compound 2] | 9.62 | 98.72

Same assay, conditions: 3 mg/kg P.O. QD × 30 days, Day 30

SMILES | Tumor volume (Day 30) [mm^3]
CC(=S)Nc1cccc(-n2c(=O)n(C3CC3)c(=O)c3c(Nc4ccc(I)cc4F)n(C)c(=O)c(C)c32)c1 [Compound 2] | 165 ± 21

Same assay, conditions: 3 mg/kg P.O. QD × 30 days, compared to the Trametinib group

SMILES | Tumor growth inhibition, tumor volume change (FIG. 2)
CC(=S)Nc1cccc(-n2c(=O)n(C3CC3)c(=O)c3c(Nc4ccc(I)cc4F)n(C)c(=O)c(C)c32)c1 [Compound 2] | better inhibitory effects
